Results reported in patent US11787780B2 (CORCEPT THERAPEUTICS INCORPORATED, priority 2020, dated 2023).

Assays:
[1] = system: induction of TAT by dexamethasone in HepG2 cells; test: Hep G2 TAT assay (inhibition of dexamethasone-induced TAT); type: cell-based, human; details: challenge of 100 nM dexamethasone, IC50 converted to Ki by Cheng and Prusoff equation
Experimental: Glucocorticoid mediated activation of TAT occurs by transactivation of glucocorticoid response elements in the TAT promoter by glucocorticoid receptor-agonist complex. The following protocol describes an assay for measuring induction of TAT by dexamethasone in HepG2 cells (a human liver hepatocellular carcinoma cell line; ECACC, UK).
TAT activity was measured as outlined in the literature by A. Ah et al., J. Med. Chem., 2004, 47, 2441-2452.
HepG2 cells were cultured using MEME media supplemented with 10% (v/v) foetal bovine serum; 2 mM L-glutamine and 1% (v/v) NEAA at 37° C., 5%/95% (v/v) CO2/air. The HepG2 cells were counted and adjusted to yield a density of 0.125×10^6 cells/ml in RPMI 1640 without phenol red, 10% (v/v) charcoal stripped FBS, 2 mM L-glutamine and seeded at 25,000 cells/well in 200 μl into 96 well, sterile, tissue culture micro titre plates, and incubated at 37° C., 5% CO2 for 24 hours
Growth media was removed and replaced with assay media {RPMI 1640 without phenol red, 2 mM L-glutamine+10 μM forskolin}. Test compounds were screened against a challenge of 100 nM dexamethasone. Compounds were serially half log diluted in 100% (v/v) dimethylsulphoxide from a 10 mM stock.
Test compounds were pre-incubated with cells in micro-titre plates for 30 minutes at 37° C., 5/95 (v/v) CO2/air, before the addition of 100 nM dexamethasone and then subsequently for 20 hours to allow optimal TAT induction.
HepG2 cells were then lysed with 30 μl of cell lysis buffer containing a protease inhibitor cocktail for 15 minutes at 4° C. […] After 2 hours incubation at 37° C. the reaction was terminated by the addition of 15 μl of 10M aqueous potassium hydroxide solution, and the plates incubated for a further 30 minutes at 37° C. The TAT activity product was measured by absorbance at λ 340 nm.
[compound] and fitting the data to a 4 parameter logistic equation. IC50 values were converted to Ki (equilibrium dissociation constant) using the Cheng and Prusoff equation, assuming the antagonists were competitive inhibitors with respect to dexamethasone.

[2] = target: glucocorticoid receptor (GR) recombinant ligand binding domain (LBD) (Homo sapiens (Human), UniProt P04150); test: GR binding fluorescence polarisation (FP) assay; details: displacement of fluorescently tagged ligand
Sequence of glucocorticoid receptor (GR) recombinant ligand binding domain (LBD) (P04150 524-758): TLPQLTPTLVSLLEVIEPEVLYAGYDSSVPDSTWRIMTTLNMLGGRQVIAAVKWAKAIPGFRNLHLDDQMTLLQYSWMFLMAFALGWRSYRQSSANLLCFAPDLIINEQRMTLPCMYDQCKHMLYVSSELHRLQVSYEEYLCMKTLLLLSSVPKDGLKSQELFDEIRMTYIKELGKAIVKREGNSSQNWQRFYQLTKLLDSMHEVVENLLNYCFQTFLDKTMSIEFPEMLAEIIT
Experimental: Binding of test compounds to the glucocorticoid receptor (GR) is determined using a fluorescence polarisation (FP) assay utilising a recombinant ligand binding domain (LBD) of GR. The test compounds are assessed by their ability to displace a fluorescently tagged ligand and detection of the resulting decrease in fluorescence polarisation.

IC50 [2] [nM] | Compound | Ki [1] [nM]
– | Cc1cc2c(cnn2-c2ccc(F)cc2)cc1C1(Cc2ccccc2)CCN(C(=O)c2cnn(C)c2)C1 (centres unmarked) [Example 19, (3-benzyl-3-(1-(4-fluorophenyl)-6-methyl-1H-indazol-5-yl)pyrrolidin-1-yl)(1-methyl-1H-pyrazol-4-yl)methanone] | 142
– | CCCn1cc(S(=O)(=O)N2CCC(c3cc4cnn(-c5ccc(F)cc5)c4cc3C)C(C)C2)cn1 (centres unmarked) [Example 26, 1-(4-fluorophenyl)-6-methyl-5-(3-methyl-1-((1-propyl-1H-pyrazol-4-yl)sulfonyl)piperidin-4-yl)-1H-indazole] | 50
– | CCCn1cc(S(=O)(=O)N2CCC3(c4cc5cnn(-c6ccc(F)cc6)c5cc4C)C(C2)C3(F)F)cn1 (centres unmarked) [Example 27, 5-(7,7-difluoro-3-((1-propyl-1H-pyrazol-4-yl)sulfonyl)-3-azabicyclo[4.1.0]heptan-6-yl)-1-(4-fluorophenyl)-6-methyl-1H-indazole] | 759
– | CCCn1cc(N(C)S(=O)(=O)C2CCN(c3cc4cnn(-c5ccc(F)cc5)c4cc3C)C2)cn1 (centres unmarked) [Example 30, 1-(1-(4-fluorophenyl)-6-methyl-1H-indazol-5-yl)-N-methyl-N-(1-propyl-1H-pyrazol-4-yl)pyrrolidine-3-sulfonamide] | 206
– | COCCn1cc(S(=O)(=O)N2CCN(c3cc4cnn(-c5ccc(F)cc5)c4cc3C)CC23CC3)cn1 [Example 78] | 70
– | Cc1cc2c(cnn2-c2ccc(F)cc2)cc1N1CCN(S(=O)(=O)c2cnn(C3CCOC3)c2)C2(CC2)C1 (centres unmarked) [Example 79] | 84
– | CCCn1cc(S(=O)(=O)N2CCN(c3cc(C)c4c(cnn4-c4ccc(F)cc4)c3)CC23CC3)cn1 [Example 80] | 536
– | CCCn1cc(S(=O)(=O)N2C[C@H](C)N(c3cc4cnn(-c5ccc(F)cc5)c4cc3C)C[C@@H]2C)cn1 [Example 81] | 58
– | CCCn1cc(S(=O)(=O)N2C[C@H](C)N(c3cc4cnn(-c5ccc(F)cc5)c4cc3C)C[C@H]2C)cn1 [Example 82] | 65
– | CCCn1cc(S(=O)(=O)N2CCN(c3cc4cnn(-c5ccc(F)cc5)c4cc3C)[C@@H](C)C2)cn1 [Example 87] | 42
– | Cc1cc2c(cnn2-c2ccc(F)cc2)cc1N1C[C@@H]2CN(S(=O)(=O)c3cnn(C)c3)C[C@@H]2C1 [Example 92] | 495
– | CCCn1cc(S(=O)(=O)N2C[C@H]3CN(c4cc5cnn(-c6ccc(F)cc6)c5cc4C)C[C@H]3C2)cn1 [Example 93] | 216
270 | CCCS(=O)(=O)N1CCN(c2ccc3c(cnn3-c3ccc(F)cc3)c2)C[C@H]1C [Example 104, (R)-1-(4-fluorophenyl)-5-(3-methyl-4-(propylsulfonyl)piperazin-1-yl)-1H-indazole] | –
320 | CS(=O)(=O)N[C@H]1CCN(c2ccc3c(cnn3-c3ccc(F)cc3)c2)C1 [Example 105] | –
9 | Cc1cc2c(cnn2-c2ccc(F)cc2)cc1N1CCC(NS(C)(=O)=O)CC1 [Example 106] | –
3 | CCCn1cc(S(=O)(=O)NC2CCN(c3cc4cnn(-c5ccc(F)cc5)c4cc3C)CC2)cn1 [Example 107] | –
7 | Cc1cc2c(cnn2-c2ccc(F)cc2)cc1N1CC[C@H](NS(C)(=O)=O)C1 [Example 108] | –
48 | Cc1cc2c(cnn2-c2ccc(F)cc2)cc1N1CC[C@@H](NS(C)(=O)=O)C1 [Example 109] | –
46 | Cc1cc2c(cnn2-c2ccc(F)cc2)cc1N1CC[C@@H](NS(=O)(=O)c2cnn(C)c2)C1 [Example 110] | –
3 | Cc1cc2c(cnn2-c2ccc(F)cc2)cc1N1CC[C@H](NS(=O)(=O)c2cnn(C)c2)C1 [Example 111] | –
249 | Cc1cc2c(cnn2-c2ccc(F)cc2)cc1N1CC[C@H](N(C)S(C)(=O)=O)C1 [Example 112] | –
52 | Cc1cc2c(cnn2-c2ccc(F)cc2)cc1N1CC[C@@H](N(C)S(C)(=O)=O)C1 [Example 113] | –
304 | Cc1cc2c(cnn2-c2ccc(F)cc2)cc1N1CC[C@H](N(C)S(=O)(=O)c2cnn(C)c2)C1 [Example 114] | –
21 | Cc1cc2c(cnn2-c2ccc(F)cc2)cc1N1CC[C@@H](N(C)S(=O)(=O)c2cnn(C)c2)C1 [Example 115] | –
72 | Cc1cc2c(cnn2-c2ccc(F)cc2)cc1N1CCC(N(C)S(C)(=O)=O)CC1 [Example 116] | –
57 | CCCn1cc(S(=O)(=O)N(C)C2CCN(c3cc4cnn(-c5ccc(F)cc5)c4cc3C)CC2)cn1 [Example 117] | –
– | CCCn1cc(S(=O)(=O)N(C)[C@H]2CCN(c3cc4cnn(-c5ccc(F)cc5)c4cc3OC)C2)cn1 [Example 118] | 1640

IC50 [2] [nM] | Compound | Ki [1] [nM]
– | CCCn1cc(S(=O)(=O)N(C)C2(C)CCN(c3cc4cnn(-c5ccc(F)cc5)c4cc3C)C2)cn1 (centres unmarked) [Example 119] | 251
208 | CCCn1cc(S(=O)(=O)N(C)[C@H]2CCCN(c3cc4cnn(-c5ccc(F)cc5)c4cc3C)C2)cn1 [Example 125] | –
190 | Cc1cc2c(cnn2-c2ccc(F)cc2)cc1N1CCCC(N(C)S(C)(=O)=O)C1 (centres unmarked) [Example 126] | –
174 | Cc1cc2c(cnn2-c2ccc(F)cc2)cc1N1CCCC(N(C)S(=O)(=O)c2cnn(C)c2)C1 (centres unmarked) [Example 127] | –
590 | CCCn1cc(S(=O)(=O)N(C)C2CCCN(c3cc4cnn(-c5ccc(F)cc5)c4cc3C)C2)cn1 (centres unmarked) [Example 128] | –
3380 | CS(=O)(=O)N1CCC(c2ccc3c(cnn3-c3ccc(F)cc3)c2)CC1 [Example 134] | –
473 | CCCn1cc(S(=O)(=O)N2CCC(c3ccc4c(cnn4-c4ccc(F)cc4)c3)CC2)cn1 [Example 135] | –
102 | Cc1cc2c(cnn2-c2ccc(F)cc2)cc1C1CCN(S(C)(=O)=O)CC1 [Example 136] | –
308 | CCCn1cc(S(=O)(=O)N2CC=C(c3ccc4c(cnn4-c4ccc(F)cc4)c3)CC2)cn1 [Example 137] | –
101 | Cc1cc2c(cnn2-c2ccc(F)cc2)cc1C1=CCN(S(C)(=O)=O)CC1 [Example 138] | –
218 | CCCn1cc(S(=O)(=O)N2CC=C(c3cc4cnn(-c5ccc(F)cc5)c4cc3C)CC2)cn1 [Example 139] | –
– | CCCn1cc(S(=O)(=O)N2CCC(c3cc4cnn(-c5ccc(F)cc5)c4cc3Cl)CC2)cn1 [Example 140] | 50
– | CCCn1cc(S(=O)(=O)N2CC=C(c3cc4cnn(-c5cccc(C(=O)NC6CCOC6)c5)c4cc3C)CC2)cn1 (centres unmarked) [Example 145] | 208
– | Cc1cc2c(cnn2-c2cccc(C(=O)NC3CCOC3)c2)cc1C1=CCN(S(C)(=O)=O)CC1 (centres unmarked) [Example 146] | 942
– | CS(=O)(=O)N1CCC(Cc2ccccc2)(c2ccc3c(cnn3-c3ccc(F)cc3)c2)C1 (centres unmarked) [Example 157] | 257
– | Cn1cc(S(=O)(=O)N2CCC(Cc3ccccc3)(c3ccc4c(cnn4-c4ccc(F)cc4)c3)C2)cn1 (centres unmarked) [Example 158] | 161
– | CCCn1cc(S(=O)(=O)N2CCC(Cc3ccccc3)(c3ccc4c(cnn4-c4ccc(F)cc4)c3)C2)cn1 (centres unmarked) [Example 159] | 101
– | Cc1cc2c(cnn2-c2ccc(F)cc2)cc1C1(Cc2cncs2)CCN(S(=O)(=O)c2cnn(C)c2)C1 (centres unmarked) [Example 179] | 331
– | Cc1cc2c(cnn2-c2ccc(F)cc2)cc1C1(Cc2cncs2)CCN(S(C)(=O)=O)C1 (centres unmarked) [Example 180] | 809
– | CS(=O)(=O)N1CCC(Cc2ccccc2)(c2cc3cnn(-c4ccc(F)cc4)c3cc2F)C1 (centres unmarked) [Example 181] | 165
– | Cc1cc2c(cnn2-c2ccc(F)cc2)cc1C1(Cc2ccc3c(c2)nnn3C)CCN(S(C)(=O)=O)C1 (centres unmarked) [Example 183] | 182
– | C#CCC1(c2cc3cnn(-c4ccc(F)cc4)c3cc2C)CCN(S(C)(=O)=O)C1 (centres unmarked) [Example 184] | 252
– | C#CCC1(c2cc3cnn(-c4ccc(F)cc4)c3cc2C)CCN(S(=O)(=O)c2cnn(C)c2)C1 (centres unmarked) [Example 185] | 164
– | C#CCC1(c2cc3cnn(-c4ccc(F)cc4)c3cc2C)CCN(S(=O)(=O)c2cnn(CCC)c2)C1 (centres unmarked) [Example 186] | 37
3900 | CCCn1cc(S(=O)(=O)N2CCN(c3cc4cnn(-c5ccc(F)cc5)c4cc3C)C(=O)C2)cn1 [Example 209, 1-(1-(4-fluorophenyl)-6-methyl-1H-indazol-5-yl)-4-((1-propyl-1H-pyrazol-4-yl)sulfonyl)piperazin-2-one] | –
390 | Cc1cc2c(cnn2-c2ccc(F)cc2)cc1C1(COCc2ccccc2)CCN(S(=O)(=O)c2cnn(C)c2)C1 (centres unmarked) [Example 341, 5-(3-((benzyloxy)methyl)-1-((1-methyl-1H-pyrazol-4-yl)sulfonyl)pyrrolidin-3-yl)-1-(4-fluorophenyl)-6-methyl-1H-indazole] | –
